From the supplement of paper PMC10307832

What was measured:
Experiment in all cases: relative viability (nuclei count vs DMSO), 5 days (fraction); higher = more cells survive
DM3189 = compound: C1CN(CCN1)C2=CC=C(C=C2)C3=CN4C(=C(C=N4)C5=CC=NC6=CC=CC=C56)N=C3 [DM3189]
Summary of the method: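 Hoechst staining, done together with fixation and permeabilisation, marked nuclei for 4× imaging and MetaXpress counting. This followed 5 days without medium change after lung cancer cell lines, kept overnight at 37 °C in 1536-well plates, were pinned with five library-drug doses (not always all listed) spaced by √10 on vehicle-anchored plates. Viability is the ratio of treated-well to vehicle-well nuclei, expressed as a median across plates. Plates passed only at control CV below 25% with at least one doubling.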

DM3189 + Navitoclax = compound: C1CN(CCN1)C2=CC=C(C=C2)C3=CN4C(=C(C=N4)C5=CC=NC6=CC=CC=C56)N=C3 [DM3189] + CC1(C)CCC(c2ccc(Cl)cc2)=C(CN2CCN(c3ccc(C(=O)NS(=O)(=O)c4ccc(N[C@H](CCN5CCOCC5)CSc5ccccc5)c(S(=O)(=O)C(F)(F)F)c4)cc3)CC2)C1 [Navitoclax] (partner 0.5 µM)
Summary of the method: (§1)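 Medians of duplicate plates are given as relative viability. That measure is the nuclei count in treated wells divided by the count in vehicle wells. Counts were taken on 4× images of lung cancer cell lines in 1536-well plates, 5 days after pin-tool dosing the day after seeding with one drug alone or a fixed anchor-drug dose plus five library-drug doses (not always all listed) in √10 steps.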

DM3189 + Lapatinib = compound: C1CN(CCN1)C2=CC=C(C=C2)C3=CN4C(=C(C=N4)C5=CC=NC6=CC=CC=C56)N=C3 [DM3189] + CS(=O)(=O)CCNCc1ccc(-c2ccc3ncnc(Nc4ccc(OCc5cccc(F)c5)c(Cl)c4)c3c2)o1 [Lapatinib] (partner 2 µM)
Summary of the method: as §1

DM3189 + Dasatinib = compound: C1CN(CCN1)C2=CC=C(C=C2)C3=CN4C(=C(C=N4)C5=CC=NC6=CC=CC=C56)N=C3 [DM3189] + Cc1nc(Nc2ncc(C(=O)Nc3c(C)cccc3Cl)s2)cc(N2CCN(CCO)CC2)n1 [Dasatinib] (partner 0.075 µM)
Summary of the method: as §1

DM3189 + Vorinostat = compound: C1CN(CCN1)C2=CC=C(C=C2)C3=CN4C(=C(C=N4)C5=CC=NC6=CC=CC=C56)N=C3 [DM3189] + O=C(CCCCCCC(=O)Nc1ccccc1)NO [Vorinostat] (partner 1 µM)
Summary of the method: as §1

Cell Line	relative viability (DM3189; 0.08 µM)	relative viability (DM3189; 0.253 µM)	relative viability (DM3189; 0.8 µM)	relative viability (DM3189; 2.53 µM)	relative viability (DM3189 + Navitoclax; first compound 0.08 µM)	relative viability (DM3189 + Navitoclax; first compound 0.253 µM)	relative viability (DM3189 + Navitoclax; first compound 0.8 µM)	relative viability (DM3189 + Navitoclax; first compound 2.53 µM)	relative viability (DM3189 + Lapatinib; first compound 0.08 µM)	relative viability (DM3189 + Lapatinib; first compound 0.253 µM)	relative viability (DM3189 + Lapatinib; first compound 0.8 µM)	relative viability (DM3189 + Lapatinib; first compound 2.53 µM)	relative viability (DM3189 + Dasatinib; first compound 0.08 µM)	relative viability (DM3189 + Dasatinib; first compound 0.253 µM)	relative viability (DM3189 + Dasatinib; first compound 0.8 µM)	relative viability (DM3189 + Dasatinib; first compound 2.53 µM)	relative viability (DM3189 + Vorinostat; first compound 0.08 µM)	relative viability (DM3189 + Vorinostat; first compound 0.253 µM)	relative viability (DM3189 + Vorinostat; first compound 0.8 µM)	relative viability (DM3189 + Vorinostat; first compound 2.53 µM)
NCI-H2126	1.12	1.01	0.961	0.942	0.827	0.873	0.756	0.861	0.869	0.775	0.673	0.732	0.742	0.568	0.446	0.503	0.998	0.769	0.742	0.705
PC-14	1.14	0.954	0.871	0.932	1.04	1.03	1	1.08	0.319	0.284	0.34	0.377	0.295	0.239	0.159	0.16	0.733	0.7	0.674	0.533
NCI-H1793	1.22	0.991	0.929	1.01	0.422	0.396	0.421	0.478	0.653	0.773	1.01	0.711	0.423	0.368	0.371	0.361	0.993	0.633	0.911	1.12
LC-2-ad	1.07	1	0.874	1.05	0.59	0.532	0.435	0.358	0.946	0.787	0.823	0.836	0.636	0.487	0.458	0.572	0.744	0.7	0.663	0.723
HCC-78	1.03	0.925	0.845	0.933	0.877	0.725		0.976	0.981	0.656		0.825	0.362	0.495	0.393	0.381	0.41	0.453	0.51	0.557
LOU-NH91	1.16	0.921	0.832	0.924	0.762	0.688	0.523	0.607	0.76	0.704	0.544	0.605	0.688	0.541	0.51	0.475	1.15	0.891	0.71	0.91
NCI-H1734	1.13	0.95	0.916	0.888	0.903	0.81	0.774	0.844	1.07	0.987	0.961	0.939	0.476	0.46	0.499	0.414	0.842	0.805	0.718	0.59
